Laboratory results: the NIST ThermoML archive (doi:10.1021/je700287u)
± gives the expanded uncertainty stated by the source.

Experiment: xn = mol fraction of the nth substance listed
Details: Liquid

CN(CCO)CCO [N-methyldiethanolamine] + O
Details | mass density [kg/m3]
313.12 K, 1001 kPa, x1 = 0.0369 | 1005.7 ± 0.4
313.12 K, 2015 kPa, x1 = 0.0369 | 1006.1 ± 0.4
313.12 K, 2986 kPa, x1 = 0.0369 | 1006.5 ± 0.4
313.12 K, 3994 kPa, x1 = 0.0369 | 1006.9 ± 0.4
313.12 K, 5003 kPa, x1 = 0.0369 | 1007.3 ± 0.4
313.12 K, 6002 kPa, x1 = 0.0369 | 1007.7 ± 0.4
313.12 K, 6994 kPa, x1 = 0.0369 | 1008.1 ± 0.4
313.12 K, 7995 kPa, x1 = 0.0369 | 1008.5 ± 0.4
313.12 K, 8996 kPa, x1 = 0.0369 | 1008.9 ± 0.4
313.12 K, 9983 kPa, x1 = 0.0369 | 1009.3 ± 0.4
313.12 K, 10989 kPa, x1 = 0.0369 | 1009.7 ± 0.4
313.12 K, 11991 kPa, x1 = 0.0369 | 1010.1 ± 0.4
313.12 K, 12991 kPa, x1 = 0.0369 | 1010.5 ± 0.4
313.12 K, 13988 kPa, x1 = 0.0369 | 1010.9 ± 0.4
313.12 K, 14989 kPa, x1 = 0.0369 | 1011.4 ± 0.4
313.12 K, 15985 kPa, x1 = 0.0369 | 1011.7 ± 0.4
313.12 K, 16984 kPa, x1 = 0.0369 | 1012.1 ± 0.4
313.12 K, 17985 kPa, x1 = 0.0369 | 1012.5 ± 0.4
313.12 K, 18989 kPa, x1 = 0.0369 | 1012.9 ± 0.4
313.12 K, 19945 kPa, x1 = 0.0369 | 1013.3 ± 0.5
313.13 K, 1003 kPa, x1 = 0.1302 | 1033.5 ± 0.4
313.13 K, 1011 kPa, x1 = 0.0893 | 1025.9 ± 0.4
313.13 K, 1993 kPa, x1 = 0.1302 | 1033.9 ± 0.4
313.13 K, 1994 kPa, x1 = 0.0893 | 1026.2 ± 0.4
313.13 K, 2999 kPa, x1 = 0.1302 | 1034.3 ± 0.4
313.13 K, 3002 kPa, x1 = 0.0893 | 1026.6 ± 0.4
313.13 K, 3994 kPa, x1 = 0.1302 | 1034.6 ± 0.4
313.13 K, 3998 kPa, x1 = 0.0893 | 1027 ± 0.4
313.13 K, 4984 kPa, x1 = 0.1302 | 1035 ± 0.5
313.13 K, 4998 kPa, x1 = 0.0893 | 1027.4 ± 0.4
313.13 K, 6001 kPa, x1 = 0.0893 | 1027.8 ± 0.4
313.13 K, 6001 kPa, x1 = 0.1302 | 1035.4 ± 0.5
313.13 K, 6993 kPa, x1 = 0.1302 | 1035.8 ± 0.5
313.13 K, 6994 kPa, x1 = 0.0893 | 1028.1 ± 0.4
313.13 K, 8000 kPa, x1 = 0.0893 | 1028.5 ± 0.4
313.13 K, 8003 kPa, x1 = 0.1302 | 1036.1 ± 0.5
313.13 K, 8996 kPa, x1 = 0.1302 | 1036.5 ± 0.5
313.13 K, 8999 kPa, x1 = 0.0893 | 1028.9 ± 0.5
313.13 K, 9989 kPa, x1 = 0.1302 | 1036.8 ± 0.5
313.13 K, 9995 kPa, x1 = 0.0893 | 1029.2 ± 0.5
313.13 K, 10983 kPa, x1 = 0.1302 | 1037.2 ± 0.5
313.13 K, 10990 kPa, x1 = 0.0893 | 1029.6 ± 0.5
313.13 K, 11992 kPa, x1 = 0.1302 | 1037.6 ± 0.5
313.13 K, 12001 kPa, x1 = 0.0893 | 1030 ± 0.5
313.13 K, 12980 kPa, x1 = 0.1302 | 1037.9 ± 0.5
313.13 K, 12989 kPa, x1 = 0.0893 | 1030.3 ± 0.5
313.13 K, 14000 kPa, x1 = 0.0893 | 1030.7 ± 0.5
313.13 K, 14000 kPa, x1 = 0.1302 | 1038.3 ± 0.5
313.13 K, 14999 kPa, x1 = 0.0893 | 1031.1 ± 0.5
313.13 K, 15002 kPa, x1 = 0.1302 | 1038.7 ± 0.5
313.13 K, 15995 kPa, x1 = 0.0893 | 1031.4 ± 0.5
313.13 K, 16001 kPa, x1 = 0.1302 | 1039.1 ± 0.5
313.13 K, 16998 kPa, x1 = 0.1302 | 1039.5 ± 0.5
313.13 K, 17013 kPa, x1 = 0.0893 | 1031.8 ± 0.5
313.13 K, 17991 kPa, x1 = 0.1302 | 1039.8 ± 0.5
313.13 K, 17993 kPa, x1 = 0.0893 | 1032.2 ± 0.5
313.13 K, 18991 kPa, x1 = 0.0893 | 1032.6 ± 0.5
313.13 K, 18996 kPa, x1 = 0.1302 | 1040.2 ± 0.5
313.13 K, 19990 kPa, x1 = 0.1302 | 1040.5 ± 0.5
313.13 K, 19991 kPa, x1 = 0.0893 | 1032.9 ± 0.5
313.14 K, 999 kPa, x1 = 0.0607 | 1018.1 ± 0.4
313.14 K, 2000 kPa, x1 = 0.0607 | 1018.5 ± 0.4
313.14 K, 3028 kPa, x1 = 0.0607 | 1018.9 ± 0.4
313.14 K, 4020 kPa, x1 = 0.0607 | 1019.3 ± 0.4
313.14 K, 5011 kPa, x1 = 0.0607 | 1019.7 ± 0.4
313.14 K, 6015 kPa, x1 = 0.0607 | 1020.1 ± 0.4
313.14 K, 7003 kPa, x1 = 0.0607 | 1020.4 ± 0.4
313.14 K, 8009 kPa, x1 = 0.0607 | 1020.8 ± 0.4
313.14 K, 9014 kPa, x1 = 0.0607 | 1021.2 ± 0.4
313.14 K, 10000 kPa, x1 = 0.0607 | 1021.5 ± 0.4
313.14 K, 10977 kPa, x1 = 0.0607 | 1022 ± 0.4
313.14 K, 12029 kPa, x1 = 0.0607 | 1022.3 ± 0.5
313.14 K, 13022 kPa, x1 = 0.0607 | 1022.7 ± 0.5
313.14 K, 13988 kPa, x1 = 0.0607 | 1023 ± 0.5
313.14 K, 15009 kPa, x1 = 0.0607 | 1023.4 ± 0.5
313.14 K, 16003 kPa, x1 = 0.0607 | 1023.8 ± 0.5
313.14 K, 16995 kPa, x1 = 0.0607 | 1024.2 ± 0.5
313.14 K, 18007 kPa, x1 = 0.0607 | 1024.6 ± 0.5
313.14 K, 19000 kPa, x1 = 0.0607 | 1024.9 ± 0.5
313.14 K, 19950 kPa, x1 = 0.0607 | 1025.3 ± 0.5
323.08 K, 1011 kPa, x1 = 0.0607 | 1012.5 ± 0.4
323.08 K, 2015 kPa, x1 = 0.0607 | 1012.9 ± 0.4
323.08 K, 3015 kPa, x1 = 0.0607 | 1013.2 ± 0.4
323.08 K, 4025 kPa, x1 = 0.0607 | 1013.7 ± 0.4
323.08 K, 4995 kPa, x1 = 0.0607 | 1014 ± 0.4
323.08 K, 6015 kPa, x1 = 0.0607 | 1014.4 ± 0.4
323.08 K, 7015 kPa, x1 = 0.0607 | 1014.8 ± 0.4
323.08 K, 7992 kPa, x1 = 0.0607 | 1015.2 ± 0.4
323.08 K, 9006 kPa, x1 = 0.0607 | 1015.6 ± 0.4
323.08 K, 10014 kPa, x1 = 0.0607 | 1016 ± 0.4
323.08 K, 11000 kPa, x1 = 0.0607 | 1016.3 ± 0.4
323.08 K, 12064 kPa, x1 = 0.0607 | 1016.8 ± 0.4
323.08 K, 13004 kPa, x1 = 0.0607 | 1017.1 ± 0.4
323.08 K, 13990 kPa, x1 = 0.0607 | 1017.5 ± 0.4
323.08 K, 14997 kPa, x1 = 0.0607 | 1017.9 ± 0.4
323.08 K, 15999 kPa, x1 = 0.0607 | 1018.2 ± 0.4
323.08 K, 16993 kPa, x1 = 0.0607 | 1018.6 ± 0.5
323.08 K, 18008 kPa, x1 = 0.0607 | 1019 ± 0.5
323.08 K, 19017 kPa, x1 = 0.0607 | 1019.4 ± 0.5
323.08 K, 19961 kPa, x1 = 0.0607 | 1019.7 ± 0.5
323.09 K, 1017 kPa, x1 = 0.1302 | 1026.6 ± 0.4
323.09 K, 1034 kPa, x1 = 0.0369 | 1001.1 ± 0.4
323.09 K, 2001 kPa, x1 = 0.1302 | 1027 ± 0.4
323.09 K, 2004 kPa, x1 = 0.0369 | 1001.5 ± 0.4
323.09 K, 2993 kPa, x1 = 0.0369 | 1001.9 ± 0.4
